Experimental data taken from US10988457B2, “TLR inhibitors” (Insilico Medicine IP Limited, priority 2019, dated 2021).
Where two headings read alike, the source gives them in different places.

Assays:
TLR7/8 [1] = assay: TLR7/8 Inhibition Assay IC50 in human PBMC's, cytokine release after CL075 stimulation (Luminex); assay type: cell-based; details: human PBMC's from one donor, CL075 2 μg/mL, 24 hours, eight concentrations 0.01-100 μM
Description: (§1) Cryopreserved human PBMC's were drip-thawed. Cells were diluted to the appropriate density (1×10^5 per well) and seeded into 96-well polypropylene plates with 150 μL per well of culture medium (RPMI 1640, 10% heat-inactivated FBS, 1% penicillin/streptomycin, 2 mM L-glutamine) for compound test wells.
Consequently, the final DMSO vehicle concentration in the assay was from 1 to 0.5%.
Than plates were centrifuged at 200×g for 10 minutes. […] Cytokine levels in each sample were determined using Luminex methodology, per the manufacturer's protocol.
The interpolated data were then normalized to the vehicle or unstimulated control.
Outlier calculation was performed using the Grubbs maximum normed residual test.
Eight test compounds were evaluated for their ability to inhibit the TLR7/8 in PBMC's from one human donor following incubation of 24 hours.

TLR7/8 [2] = details: reference compound 100 nM, CL075 2 μg/mL, human PBMC's, 24 hours
Description: Namely, in the present experiment their ability was evaluated to inhibit TLR7/8 in human PBMC's, as measured by the release of specific cytokines. The following cytokines were measured for a complete cytokine response profile (no dilution of samples): IL-1β, IL-6, IL-12p40, TNFα and IFNα.
Levels of each cytokine induction were interpolated from standard curves using a 5-parameter non-linear regression analysis, where y=(A+((B−A)/(1+(((B−E)/(E−A))*((x/C)^D))))). The interpolated data were then normalized to the vehicle control. Percent of control (PoC) was also calculated using the formula, PoC=(test sample/positive vehicle control)×100.
as §1, with “Fetal Bovine Serum (FBS),” for “FBS,”, “wells. For the control wells, cells (1×10^5 per well) were plated in 150 μL per well of culture medium.” for “wells.”
Cells were incubated at 37° C., 5% CO2 for 1 hour prior to the addition of test compounds or controls.
Test compounds were solubilized in DMSO to make 20× stock solutions, then diluted further with cell culture medium.
Test compounds were added to the PBMC's in volumes of 10 μL and incubated for 1 hour at 37° C., 5% CO2. Compounds were tested in duplicates at final assay concentrations of 10 μM.
Plates were incubated at 37° C., 5% CO2 for 24 hours. Plates were centrifuged at 200×g for 10 minutes. Cell culture supernatants were collected and stored at −80° C. until needed for analysis.
Harvested cell culture supernatants were measured for IL-1β, IL-6, IL-12p40, TNFα and IFNα release to assess dual TLR7/8 inhibition.

[3] = read-out: IC50 levels for test compounds, IFNα
[4] = read-out: IC50 levels for test compounds, IL-1β
[5] = read-out: IC50 levels for test compounds, L-6
[6] = read-out: IC50 levels for test compounds, L-12p40
[7] = read-out: IC50 levels for test compounds, TNFα

| IC50 (TLR7/8 [1]; [3]) | IC50 (TLR7/8 [1]; [4]) | IC50 (TLR7/8 [1]; [5]) | IC50 (TLR7/8 [1]; [6]) | IC50 (TLR7/8 [1]; [7]) | Compound | TLR7/8 Inhibition, IFNα (POC %) (TLR7/8 [2]) | TLR7/8 Inhibition, IL-1β (POC %) (TLR7/8 [2]) | TLR7/8 Inhibition, IL-6 (POC %) (TLR7/8 [2]) | TLR7/8 Inhibition, IL-12p40 (POC %) (TLR7/8 [2]) | TLR7/8 Inhibition, TNFα (POC %) (TLR7/8 [2]) |
| --- | --- | --- | --- | --- | --- | --- | --- | --- | --- | --- |
| > 20 µM | ≤ 10 µM | > 20 µM | 10 to 20 µM | > 20 µM | N#Cc1ccc(N2CCCC(C(=O)NCCN3CCc4ccccc43)C2)c(F)c1 (stereo not drawn) [Compound 15] |  |  |  |  |  |
| ≤ 10 µM | > 20 µM | > 20 µM | > 20 µM | > 20 µM | COc1ccc2c(c1)CCN(CCNC(=O)C1CCN(c3ccc(C(F)(F)F)cn3)CC1)C2 [Compound 22, N-(2-(6-methoxy-3,4-dihydroisoquinolin-2(19)-yl)ethyl)-1-(5-(trifluoromethyl)pyridin-2-yl)piperidine-4-carboxamide] |  |  |  |  |  |
| ≤ 10 µM | > 20 µM | > 20 µM | 10 to 20 µM | > 20 µM | COc1ccc2c(c1)CCN(CCNC(=O)C1CCCN(c3ccc(C#N)cc3)C1)C2 (stereo not drawn) [Compound 24] |  |  |  |  |  |
| ≤ 10 µM | > 20 µM | ≤ 10 µM | 10 to 20 µM | > 20 µM | COc1ccc2c(c1)CCN(CCNC(=O)C1CCCN(c3ccc(C#N)cc3F)C1)C2 (stereo not drawn) [Compound 25] |  |  |  |  |  |
| ≤ 10 µM | > 20 µM | > 20 µM | 10 to 20 µM | ≤ 10 µM | COc1ccc2c(c1)CCN(CCCNC(=O)C1CCN(c3ccc(C#N)cc3)CC1)C2 [Compound 26] |  |  |  |  |  |
|  |  |  |  |  | C[C@@H]1C[C@H]2[C@@H]3CCC4=CC(=O)C=C[C@]4(C)[C@@]3(F)[C@@H](O)C[C@]2(C)[C@@]1(O)C(=O)CO [Dexamethasone, dexamethasone] | 26.1% | 26.8% | 34.7% | 34.2% | 95.2% |
